According to the supplement of paper PMC12350171:

Legend:
[1] = system: Com21 synthetic gut community; assay: community biomass OD578 after 24 h drug treatment relative to untreated (fraction of untreated control); higher = more community growth; details: community: Com21 (Com20 + E. coli ED1a)
Description: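 Com21 (Com20 plus E. coli ED1a) was treated with drug for 24 h under anaerobic conditions in mGAM. Community OD578 was then measured and normalised to untreated Com21; mean of 3 biological replicates.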

Escherichia coli ED1a = assay: IC25 growth inhibition; higher = less potent
Method in brief: (§1)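 Monocultures grown overnight in mGAM were added to pre-reduced plates holding twofold drug dilutions, giving a starting OD578 of 0.01 and 1% DMSO (or water). Growth was followed anaerobically by hourly OD578 readings in a plate reader, with at least three biological replicates. The median growth-curve AUC per concentration was forced to be monotonic. IC25 was the lowest concentration with median AUC below 0.75, reported as a tested interval.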

[2] = system: Bacteroides thetaiotaomicron; assay: IC25 growth inhibition; higher = less potent
Method in brief: as §1

Coprococcus comes = assay: IC25 growth inhibition; higher = less potent
Method in brief: as §1

Streptococcus salivarius = assay: IC25 growth inhibition; higher = less potent
Method in brief: as §1

Collinsella aerofaciens = assay: IC25 growth inhibition; higher = less potent
Method in brief: as §1

Clostridium ramosum = assay: IC25 growth inhibition; higher = less potent
Method in brief: as §1

Clostridium bolteae = assay: IC25 growth inhibition; higher = less potent
Method in brief: as §1

[3] = system: Fusobacterium nucleatum subsp. Nucleatum; assay: IC25 growth inhibition; higher = less potent
Method in brief: as §1

Bacteroides uniformis = assay: IC25 growth inhibition; higher = less potent
Method in brief: as §1

Dorea formicigenerans = assay: IC25 growth inhibition; higher = less potent
Method in brief: as §1

Vibrio cholerae = assay: IC25 growth inhibition; higher = less potent
Method in brief: as §1

Roseburia intestinalis = assay: IC25 growth inhibition; higher = less potent
Method in brief: as §1

Clostridium perfringens = assay: IC25 growth inhibition; higher = less potent
Method in brief: as §1

Parabacteroides merdae = assay: IC25 growth inhibition; higher = less potent
Method in brief: as §1

Bacteroides fragilis NT = assay: IC25 growth inhibition; higher = less potent
Method in brief: as §1

[4] = system: Yersinia pseudotuberculosis; assay: IC25 growth inhibition; higher = less potent
Method in brief: as §1

[5] = system: Yersinia enterocolitica WA-314; assay: IC25 growth inhibition; higher = less potent
Method in brief: as §1

Ruminococcus gnavus = assay: IC25 growth inhibition; higher = less potent
Method in brief: as §1

Eubacterium rectale = assay: IC25 growth inhibition; higher = less potent
Method in brief: as §1

Bacteroides vulgatus = assay: IC25 growth inhibition; higher = less potent
Method in brief: as §1

Shigella flexneri = assay: IC25 growth inhibition; higher = less potent
Method in brief: as §1

[6] = system: Salmonella enterica typhimurium; assay: IC25 growth inhibition; higher = less potent
Method in brief: as §1

[7] = system: Streptococcus parasanguinis; assay: IC25 growth inhibition; higher = less potent
Method in brief: as §1

[8] = system: Clostridium saccharolyticum; assay: IC25 growth inhibition; higher = less potent
Method in brief: as §1

[9] = drug pretreatment concentration 20 µM
[10] = drug pretreatment concentration 40 µM
[11] = drug pretreatment concentration 80 µM
[12] = drug pretreatment concentration 160 µM
[13] = drug pretreatment concentration 2.5 µM
[14] = drug pretreatment concentration 5 µM
[15] = drug pretreatment concentration 10 µM
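Wherever IC25 growth inhibition is given: lowest concentration where monotonic median growth AUC falls below 0.75 of drug-free control.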

Row | SMILES | community biomass OD578 [1, 9] | community biomass OD578 [1, 10] | community biomass OD578 [1, 11] | community biomass OD578 [1, 12] | IC25 growth inhibition (Escherichia coli ED1a) [µM] | IC25 growth inhibition [2] [µM] | IC25 growth inhibition (Coprococcus comes) [µM] | IC25 growth inhibition (Streptococcus salivarius) [µM] | IC25 growth inhibition (Collinsella aerofaciens) [µM] | IC25 growth inhibition (Clostridium ramosum) [µM] | IC25 growth inhibition (Clostridium bolteae) [µM] | IC25 growth inhibition [3] [µM] | IC25 growth inhibition (Bacteroides uniformis) [µM] | IC25 growth inhibition (Dorea formicigenerans) [µM] | IC25 growth inhibition (Vibrio cholerae) [µM] | IC25 growth inhibition (Roseburia intestinalis) [µM] | IC25 growth inhibition (Clostridium perfringens) [µM] | IC25 growth inhibition (Parabacteroides merdae) [µM] | IC25 growth inhibition (Bacteroides fragilis NT) [µM] | IC25 growth inhibition [4] [µM] | IC25 growth inhibition [5] [µM] | IC25 growth inhibition (Ruminococcus gnavus) [µM] | IC25 growth inhibition (Eubacterium rectale) [µM] | IC25 growth inhibition (Bacteroides vulgatus) [µM] | IC25 growth inhibition (Shigella flexneri) [µM] | IC25 growth inhibition [6] [µM] | IC25 growth inhibition [7] [µM] | IC25 growth inhibition [8] [µM] | community biomass OD578 [1, 13] | community biomass OD578 [1, 14] | community biomass OD578 [1, 15]
1 | CCC(C)(C)C(=O)O[C@H]1C[C@@H](C)C=C2C=C[C@H](C)[C@H](CC[C@@H]3C[C@@H](O)CC(=O)O3)[C@H]21 [Simvastatin] | 0.99 | 0.946 | 0.844 | 0.687 | > 160 | ≤ 40 | > 80 | ≤ 20 | ≤ 80 | ≤ 40 | > 80 | > 80 | ≤ 40 | ≤ 80 | > 80 | ≤ 20 | ≤ 40 | ≤ 40 | ≤ 40 | > 80 | > 80 | ≤ 40 | ≤ 20 | ≤ 20 | > 80 | > 80 | ≤ 80 | ≤ 80 |  |  | 
2 | CC/C(=C(\c1ccccc1)c1ccc(OCCN(C)C)cc1)c1ccccc1 [Tamoxifen] | 0.977 | 0.719 |  |  | > 40 | ≤ 40 | > 40 | > 40 | ≤ 40 | > 40 | > 40 | > 40 | ≤ 40 | ≤ 20 | > 40 | ≤ 20 | > 40 | > 40 | > 40 | > 40 | > 40 | ≤ 40 | ≤ 5 | > 40 | > 40 | > 40 | > 40 | > 40 | 1 | 1.01 | 1
3 | Nc1nc(=S)c2ncn([C@@H]3O[C@H](CO)[C@@H](O)[C@H]3O)c2[nH]1 [Thioguanosine] | 1.05 | 1.01 |  |  | ≤ 2.5 | > 40 | > 40 | > 40 | > 40 | > 40 | > 40 | > 40 | > 40 | > 40 | > 40 | > 40 | > 40 | > 40 | > 40 | ≤ 20 | > 40 | > 40 | > 40 | > 40 | ≤ 2.5 | > 40 | > 40 | > 40 | 1.01 | 1.01 | 1.02
4 | C/C=C(/C(=C/C)c1ccc(O)cc1)c1ccc(O)cc1 [Dienestrol] | 0.972 | 0.894 |  |  | > 40 | ≤ 20 | ≤ 10 | ≤ 40 | > 40 | ≤ 40 | > 40 | > 40 | ≤ 40 | ≤ 10 | ≤ 40 | ≤ 40 | ≤ 20 | ≤ 40 | ≤ 10 | > 40 | > 40 | ≤ 5 | ≤ 20 | ≤ 40 | > 40 | > 40 | > 40 | ≤ 40 | 0.981 | 1.03 | 0.997
5 | COc1cc(C(=O)NS(=O)(=O)c2ccccc2C)ccc1Cc1cn(C)c2ccc(NC(=O)OC3CCCC3)cc12 [Zafirlukast] | 0.876 | 0.825 | 0.81 | 0.841 | > 160 | ≤ 80 | ≤ 20 | ≤ 10 | ≤ 80 | ≤ 10 | ≤ 80 | > 80 | ≤ 80 | ≤ 40 | > 80 | ≤ 20 | ≤ 10 | ≤ 40 | ≤ 80 | > 80 | > 80 | ≤ 20 | ≤ 80 | ≤ 40 | > 160 | > 80 | ≤ 20 | ≤ 80 |  |  | 0.904
6 | C[C@]1(Cn2ccnn2)[C@H](C(=O)O)N2C(=O)C[C@H]2S1(=O)=O [Tazobactam] | 0.79 | 0.716 | 0.733 | 0.722 | ≤ 160 | ≤ 20 | ≤ 80 | ≤ 160 | ≤ 160 | > 160 | > 160 | ≤ 20 | ≤ 5 | ≤ 20 | > 160 | ≤ 40 | ≤ 80 | ≤ 10 | ≤ 10 | > 160 | > 160 | ≤ 160 | ≤ 5 | ≤ 10 | ≤ 160 | ≤ 160 | ≤ 40 | ≤ 80 |  |  | 0.834
7 | CC(C)(C)c1ccc(C(O)CCCN2CCC(C(O)(c3ccccc3)c3ccccc3)CC2)cc1 (stereo unspecified) [Terfenadine] | 0.96 | 0.863 | 0.542 | 0.35 | > 160 | ≤ 80 | ≤ 80 | ≤ 80 | ≤ 20 | > 80 | ≤ 80 | ≤ 80 | ≤ 80 | ≤ 20 | > 40 | ≤ 10 | ≤ 80 | ≤ 80 | ≤ 80 | > 80 | > 40 | ≤ 20 | ≤ 80 | ≤ 40 | > 80 | > 160 | ≤ 80 | ≤ 40 |  |  | 0.953
8 | CN(C)C(=N)NC(=N)N [Metformin] | 1.01 | 1.01 | 1.02 | 1.03 | > 160 | > 160 | > 160 | > 160 | > 160 | > 160 | > 160 | > 160 | > 160 | > 160 | > 160 | > 160 | > 160 | > 160 | > 160 | > 160 | > 160 | > 160 | > 160 | > 160 | > 160 | > 160 | > 160 | > 160 |  |  | 1.02
